Drawing on PubChem BioAssay (NCI), this text covers GI50 and TGI for six compounds.

What all share (assay): NCI tumour cell line growth inhibition, 48 h
Assay [1] concerns CAKI-1 renal.
For assay [2], the system named is HL-60(TB) leukemia.
The test system of assay [3] is KM12 colon.
In assay [4] the test system is MCF7 breast.
Assay [5] deals with MDA-MB-435.
Assay [6] deals with SF-268 CNS.
For assay [7], the system named is SNB-19 CNS.
The subject of assay [8] is T-47D breast.
Assay [9] concerns UACC-257 melanoma.
Assay [10] relates to UO-31 renal.

The structures appear in SMILES notation.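 Following 48 hours of exposure in 96-well plates, responses at five concentrations were used to interpolate endpoints linearly. At the GI50, growth is halved. TGI: concentration producing complete growth inhibition.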

`Nc1ccc(C#Cc2cncnc2Nc2ccc(OCc3cccc(F)c3)c(Cl)c2)cc1`: the GI50 was 5.87 µM in assay [1]; 5.68 µM in [2]; 10.2 µM in assay [3]; 11.9 µM in assay [4]; greater than 17.6 µM in assay [5]; 16.5 µM in [6]. In addition, the GI50 in assay [7] was greater than 14.3 µM; in assay [8], 6.17 µM; in [9], greater than 13.2 µM; in [10] it was 3.2 µM. Besides, the TGI in assay [1], in assay [2], in [3], in assay [4], in assay [5] and in assay [6] was greater than 25 µM each time. The TGI in [7], in [8], in [9] and in assay [10] was greater than 25 µM each time.
In the case of `COc1ccc2cc(C(=O)/C=C/c3cccc(Cl)c3Cl)ccc2c1`, the GI50 is 5.6 µM in [1]; 24.2 µM in assay [2]; 8.08 µM in [3]; 1.28 µM in assay [4]; 1.44 µM in assay [5]; 18.8 µM in assay [6]. The GI50 was 26.2 µM in assay [7], greater than 59 µM in assay [8], 39.6 µM in assay [9] and 10.2 µM in assay [10]. Moreover, the TGI in assay [1] is 80.6 µM; in assay [2], greater than 100 µM; in assay [3] it was 64.3 µM; in [4] it was greater than 100 µM; in assay [5], 29.6 µM; in assay [6] it was greater than 92.2 µM. Moreover, the TGI was greater than 83.3 µM in assay [7], greater than 100 µM in assay [8], greater than 100 µM in [9] and greater than 53.2 µM in [10].
As to `NC(=O)c1[nH]nc(C2OC(CO)C(O)C2O)c1O` (stereo not given), the TGI turned out to be 158 µM in assay [1]; 63.7 µM in assay [2]; 2980 µM in assay [3]; 1060 µM in [4]; 469 µM in assay [5]; 3560 µM in assay [6]. In addition, the TGI in assay [7] is greater than 4620 µM; in [8], greater than 2990 µM; in assay [9], greater than 5000 µM; in [10], 1020 µM.
With `COC(=O)[C@]12CC[C@@H](C)[C@H](C)[C@@H]1C1=CC[C@@H]3[C@@]4(C)C(C=O)=C[C@@](C)(COC(C)=O)[C@@H]4[C@H](O)C[C@@]3(C)[C@]1(C)CC2`, the GI50 in [1] was 2.72 µM; in assay [2], 2.53 µM; in [3], 2.35 µM; in assay [4], 1.94 µM; in assay [5], 2.09 µM; in assay [6], 2.65 µM. The GI50 in assay [7] is 3.22 µM; in assay [8], 2.75 µM; in assay [9], 2.02 µM; in assay [10] it was 1.57 µM. Besides, the TGI in assay [1] turned out to be 12.3 µM; in [2] it was 5.42 µM; in [3], 6.93 µM; in [4], 5.51 µM; in assay [5] it was 5.04 µM; in [6], 9.14 µM. In addition, the TGI in assay [7] stood at 14.8 µM; in [8] it was 14.2 µM; in [9], 4.8 µM; in assay [10], 3.84 µM.
Turning to `CC(CN)[C@@H]1CC[C@]2(CO)CC[C@]3(C)[C@H](CC[C@@H]4[C@@]5(C)CCC(NCCO)C(C)(C)[C@@H]5CC[C@]43C)[C@@H]12` (stereo not given in full), the GI50 in assay [1] was 4.12 µM; in [2], 2.65 µM; in [3], 1.9 µM; in assay [4] it was 1.78 µM; in assay [5], 1.7 µM; in assay [6], 1.75 µM. The GI50 in assay [7] is 1.8 µM; in assay [8], 2.01 µM; in assay [9], 1.73 µM; in [10], 2.43 µM. The TGI in assay [1] was 16.6 µM; in assay [2], 7.47 µM; in [3] it was 4.14 µM; in assay [4], 3.62 µM; in [5], 3.14 µM; in [6], 3.94 µM. In addition, the TGI in assay [7] turned out to be 3.54 µM; in assay [8] it was 4.58 µM; in assay [9], 3.15 µM; in [10], 9.57 µM.
`CC(C)(C)OC(=O)NCCCCCCCCn1c2c(c3ccccc3c1=O)C(=O)c1ccccc1-2`: the GI50 is 11.8 µM in assay [1]; greater than 50 µM in [2]; greater than 40.4 µM in [3]; greater than 50 µM in assay [4]; greater than 50 µM in assay [5]; 19.5 µM in [6]. Also, the GI50 in assay [7] was 14.9 µM; in assay [8], greater than 48 µM; in assay [9] it was greater than 50 µM; in [10], 34 µM. The TGI is greater than 36.5 µM in assay [1]; greater than 50 µM in assay [2]; greater than 50 µM in assay [3]; greater than 50 µM in assay [4]; greater than 50 µM in [5]; greater than 50 µM in assay [6]. Moreover, the TGI in assay [7], in assay [8], in assay [9] and in assay [10] was greater than 50 µM each time.
